From patent publication US9593113B2, “Imide and acylurea derivatives as modulators of the glucocorticoid receptor” (BRISTOL-MYERS SQUIBB COMPANY, priority 2013, dated 2017) come the findings set out here.

Each structure is given as a SMILES string. Where two headings read alike, the source gives them in different places.

In assay [1] the target is human full-length glucocorticoid receptor (Homo sapiens (Human), UniProt P04150). Briefly: Glucocorticoid Receptor Binding Assay (II), fluorescence polarization competitor kit. How it is done:
In order to measure the binding of compounds on the glucocorticoid receptor a commercially available kit was used (Glucocorticoid receptor competitor assay kit, PanVera Co., Madison, Wis., P2816). Briefly, a cell lysate containing recombinantly expressed human full-length glucocorticoid receptor was mixed with a fluorescently labeled glucocorticoid (1 nM Fluormone GS1) in the presence or absence of test compound. After one hour at room temperature, the fluorescence polarization (FP) of the samples were measured.
In general terms: Fluorescence polarisation rises when a labelled molecule tumbles more slowly, as on binding a larger partner.

Assay [2] deals with AP-1 induced transcriptional activity. Put plainly: Cellular transrepressional assay (AP-1 luciferase reporter, PMA-activated A549 cell). As to conditions: for EC50: read-out: AP-1 (EC50, nM) (measured in cellular transrepression assay). The format is cell-based. As for the experimental part: To measure the ability of test molecules to inhibit AP-1 induced transcriptional activity we utilized an A549 cell which was stably transfected with a plasmid containing 7×AP-1 DNA binding sites (pAP-1-Luc plasmid, Stratagene Co., La Jolla, Calif.) followed by the gene for luciferase. Cells were activated with 10 ng/ml of phorbol myristic acid (PMA) plus or minus test molecules for 7 hours. After 7 hours a luciferase reagent was added to measure luciferase enzymatic activity in the cell. After a 10 minute incubation of luciferase reagent with cells, luminescence was measured in a TOPCOUNT® luminescence counter. Repression of AP-1 activity was calculated as the percentage decrease in the signal induced by PMA alone. Test molecules were analyzed in the concentration range from 0.1 nM to 40 μM. EC50s were determined by using standard curve fitting methods such as Excel fit (Microsoft Co.). An EC50 is the test molecule concentration at which there is a 50% repression of the maximal inhibition of transcription, i.e., a 50% reduction of AP-1 activity.

Setting [3] is: read-out: GR (Ki, nM) (measured in GR binding Assay II).
[4] abbreviates: A549 cell, 10 ng/ml PMA, 7 hours.
[5] abbreviates: Homo sapiens, A549 cell, 10 ng/ml PMA, 7 hours.

human full-length glucocorticoid receptor, sequence (P04150 whole entry): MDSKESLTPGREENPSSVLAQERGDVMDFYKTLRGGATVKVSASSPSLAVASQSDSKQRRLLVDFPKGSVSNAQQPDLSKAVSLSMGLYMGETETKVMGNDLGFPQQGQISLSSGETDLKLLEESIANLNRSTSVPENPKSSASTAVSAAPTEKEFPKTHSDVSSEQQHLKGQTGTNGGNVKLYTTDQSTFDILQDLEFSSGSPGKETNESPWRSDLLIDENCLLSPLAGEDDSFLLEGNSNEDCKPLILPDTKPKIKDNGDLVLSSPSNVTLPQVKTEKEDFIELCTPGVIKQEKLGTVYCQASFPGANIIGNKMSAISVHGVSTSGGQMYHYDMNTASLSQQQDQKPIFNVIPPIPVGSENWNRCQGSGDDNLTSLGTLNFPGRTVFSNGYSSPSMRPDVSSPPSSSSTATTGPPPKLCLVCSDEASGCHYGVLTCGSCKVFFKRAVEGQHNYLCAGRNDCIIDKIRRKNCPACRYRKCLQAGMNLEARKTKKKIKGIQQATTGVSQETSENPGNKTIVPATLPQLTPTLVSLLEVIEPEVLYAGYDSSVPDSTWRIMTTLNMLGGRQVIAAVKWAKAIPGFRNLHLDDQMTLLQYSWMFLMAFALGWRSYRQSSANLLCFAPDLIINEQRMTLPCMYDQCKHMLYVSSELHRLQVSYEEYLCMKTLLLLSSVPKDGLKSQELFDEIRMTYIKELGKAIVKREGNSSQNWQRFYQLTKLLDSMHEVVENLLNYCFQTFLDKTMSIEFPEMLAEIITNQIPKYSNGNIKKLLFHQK

`CCCCc1ccc(-c2ccc3c(n2)Oc2c(F)cccc2[C@@H]3C(C)(C)C(=O)NC(N)=O)cc1` [Example 43]: the Ki in assay [1] (setting [3]) amounted to 0.91 nM. In assay [2] (setting [4]), the “AP-1 Max % inhibition (measured in cellular transrepression assay)” value (shortened to “AP-1 Max % inhibition”) came to 67.14% and the 50% effective concentration (EC50) came out at 5.39 nM.
For `CC(C)(C(=O)NC(N)=O)[C@@H]1c2ccc(-c3ccc(-n4cnnn4)cc3)nc2Oc2c(F)cccc21` [Example 45], in that order: 0.82 nM, 55.41% and 7.77 nM.
For `CC(C)(C(=O)NC(N)=O)[C@@H]1c2ccc(-c3ccc(C(=O)N4CCCC4)nc3)nc2Oc2c(F)cccc21` [Example 46], in that order: 1.97 nM, 65.90% and 16.5 nM.
The like results for `CC(C)(C(=O)NC(N)=O)[C@H]1c2ccccc2Oc2nc(-c3ccc(C(=O)N4CCC(F)(F)C4)c(F)c3)ccc21` [Example 49] were, in that order, 1.09 nM, 67.00% and 13.3 nM.
Consider `CC(C)(C(=O)NC(N)=O)[C@H]1c2ccccc2Oc2nc(-c3ccc(C(=O)N4CCC(F)(F)C4)cc3)ccc21` [Example 50], for which the Ki in assay [1] (setting [3]) was 1.76 nM. Besides, in assay [2] (setting [4]), the “AP-1 Max % inhibition” value was found to be 69.26% and the EC50 is 15.3 nM.
On to `CC(C)(C(=O)NC(N)=O)[C@H]1c2ccccc2Oc2nc(-c3ccc(C(=O)N4CCCC4)c(F)c3)ccc21` [Example 51], for which the Ki in assay [1] (setting [3]) worked out at 1.34 nM. In addition, in assay [2] (setting [4]), the “AP-1 Max % inhibition” value is 65.20% and the half-maximal effective concentration (EC50) came out at 13.2 nM.
For `CC(C)(C(=O)NC(N)=O)[C@H]1c2ccccc2Oc2nc(-c3ccc(C(=O)N4CCCC4)c(Cl)c3)ccc21` [Example 52], in that order: 123 nM, 57.02% and 815 nM.
As for `CC(C)(C(=O)NC(N)=O)[C@H]1c2ccccc2Oc2nc(-c3ccc(C(=O)N4CCC(F)(F)C4)c(Cl)c3)ccc21` [Example 53], the Ki in assay [1] (setting [3]) worked out at 369 nM. For the same compound, in assay [2] (setting [4]), the “AP-1 Max % inhibition” value is on record as 28.67% and the 50% effective concentration (EC50) is 2500 nM.
The like results for `CC(C)(C(=O)NC(N)=O)[C@H]1c2ccccc2Oc2nc(-c3ccc(C(=O)N4CCCC4)nc3)ccc21` [Example 54] were, in that order, 7.65 nM, 55.36% and 67.2 nM.
For `CC(C)Oc1ccc(-c2ccc3c(n2)Oc2ccccc2[C@@H]3C(C)(C)C(=O)NC(N)=O)cn1` [Example 57], in that order: 4.23 nM, 73.98% and 128 nM.
The like results for `CN(C)c1ccc(-c2ccc3c(n2)Oc2ccccc2[C@@H]3C(C)(C)C(=O)NC(N)=O)cn1` [Example 58] were, in that order, 24.9 nM, 45.16% and 72.6 nM.
In the case of `CC(C)Nc1ccc(-c2ccc3c(n2)Oc2c(F)cccc2[C@@H]3C(C)(C)C(=O)NC(N)=O)cn1` [Example 60], the Ki in assay [1] (setting [3]) was determined as 1.13 nM. Moreover, in assay [2], the “AP-1 Max % inhibition” value was 66.44% and the EC50 was determined as 2.9 nM.
For the compound `CC(=O)Nc1ccc(-c2ccc3c(n2)Oc2c(F)cccc2[C@@H]3C(C)(C)C(=O)NC(N)=O)cn1` [Example 61], the Ki in assay [1] (setting [3]) was determined as 4.26 nM. For the same compound, in assay [2] (setting [4]), the “AP-1 Max % inhibition” value worked out at 39.15% and the 50% effective concentration (EC50) came to 31.1 nM.
For `CC(C)(C(=O)NC(N)=O)[C@@H]1c2ccc(-c3ccc(NC4CC4)nc3)nc2Oc2c(F)cccc21` [Example 62], in that order: 1.15 nM, 64.75% and 8.24 nM.
With `CC(C)(C(=O)NC(N)=O)[C@@H]1c2ccc(-c3ccc(C(=O)O)nc3)nc2Oc2c(F)cccc21` [Example 63], in assay [1] (setting [3]), the Ki amounted to 10.8 nM. Also, in assay [2] (setting [4]), the “AP-1 Max % inhibition” value was determined as 39.61% and the concentration giving a half-maximal response (EC50) came to 142 nM.
With `CC(C)(C(=O)NC(N)=O)[C@@H]1c2ccc(-c3ccc(N4CCCCC4)nc3)nc2Oc2c(F)cccc21` [Example 64], the Ki in assay [1] (setting [3]) was 1.7 nM. In assay [2], the “AP-1 Max % inhibition” value is 44.43% and the 50% effective concentration (EC50) was found to be 72.5 nM.
For the compound `CC(C)Oc1ccc(-c2ccc3c(n2)Oc2ccccc2[C@@H]3C(C)(C)C(=O)NC(N)=O)cn1` [Example 65], the inhibition constant (Ki) in assay [1] (setting [3]) was 0.5 nM. Also, in assay [2] (setting [4]), the “AP-1 Max % inhibition” value amounted to 54.73% and the EC50 is 4.89 nM.
The like results for `CC(=O)Nc1ccc(-c2ccc3c(n2)Oc2ccccc2[C@@H]3C(C)(C)C(=O)NC(N)=O)cn1` [Example 66] were, in that order, 2.66 nM, 36.83% and 39.7 nM.
For `Cc1nnn(-c2ccc(-c3ccc4c(n3)Oc3ccccc3[C@@H]4C(C)(C)C(=O)NC(N)=O)cc2)n1` [Example 67], the Ki in assay [1] (setting [3]) came to 1.51 nM. For the same compound, in assay [2] (setting [4]), the “AP-1 Max % inhibition” value worked out at 53.28% and the EC50 came to 4.98 nM.
In assay [1], `CC(C)Oc1ccc(-c2ccc3c(n2)Oc2c(F)cccc2[C@@H]3C(C)(C)C(=O)NC(N)=O)cn1` [Example 68] registered a Ki of 0.63 nM. Besides, the “AP-1 Max % inhibition” value in assay [2] (setting [4]) came to 61.39%. The EC50 in assay [2] (setting [5]) stood at 8.57 nM.
As for `CC(C)(O)c1ccc(-c2ccc3c(n2)Oc2ccccc2[C@@H]3C(C)(C)C(=O)NC(N)=O)cc1` [Example 70], in assay [1] (setting [3]), the inhibition constant Ki stood at 1.19 nM. Moreover, the “AP-1 Max % inhibition” value in assay [2] (setting [4]) was found to be 79.50%. Moreover, the EC50 in assay [2] (setting [5]) is 8.94 nM.
Turning to `CN1CCN(c2ncc(-c3ccc4c(n3)Oc3c(F)cccc3[C@@H]4C(C)(C)C(=O)NC(N)=O)cn2)CC1` [Example 71], the Ki in assay [1] (setting [3]) is 25.9 nM. The “AP-1 Max % inhibition” value in assay [2] (setting [4]) was found to be 39.16%. Also, in assay [2] (setting [5]), the half-maximal effective concentration (EC50) was 93.6 nM.
With `CC(C)(C(=O)NC(N)=O)[C@H]1c2ccccc2Oc2nc(-c3ccncc3)ccc21` [Example 72], in assay [1] (setting [3]), the Ki is 4.71 nM. Further, the “AP-1 Max % inhibition” value in assay [2] (setting [4]) turned out to be 37.36%. Besides, in assay [2] (setting [5]), the concentration for a half-maximal effect (EC50) is 36 nM.
For `CC(C)(C(=O)NC(N)=O)[C@@H]1c2ccc(-c3ccncc3)nc2Oc2c(F)cccc21` [Example 73], in that order: 1.72 nM, 55.78% and 20.1 nM.
The like results for `CC(C)(C(=O)NC(N)=O)C1c2ccccc2Oc2ccccc21` [Example 75] were, in that order, 32 nM, 10.32% and 5000 nM.
Turning to `CC(C)(C(=O)NC(N)=O)[C@H]1c2ccccc2Oc2nc(-c3cc[n+]([O-])cc3)ccc21` [Example 76], the inhibition constant Ki in assay [1] (setting [3]) came out at 119 nM. In addition, in assay [2] (setting [4]), the “AP-1 Max % inhibition” value came out at 23.09% and the 50% effective concentration (EC50) was 327 nM.
For the compound `CC(C)(C(=O)NC(N)=O)[C@@H]1c2ccc(-c3ccc(C(=O)N4CCCCC4)cc3)nc2Oc2c(F)cccc21` [Example 83], the Ki in assay [1] (setting [3]) is 1.11 nM. Also, the “AP-1 Max % inhibition” value in assay [2] (setting [4]) is 86.42%. For the same compound, the 50% effective concentration (EC50) in assay [2] (setting [5]) is 5.89 nM.
The like results for `CC(C)(C(=O)NC(N)=O)[C@@H]1c2ccc(-c3ccc(C(=O)N4CC[C@@H](F)C4)cc3)nc2Oc2c(F)cccc21` [Example 85] were, in that order, 1.2 nM, 76.00% and 0.8 nM.

The Ki is a measure of affinity in units of concentration, obtained from inhibition or displacement. For orientation: EC50 means the concentration at which the effect is half-maximal.
